Values belong to the compound of their own block, whether it stands above or below them.
What was measured:
[1] = in vivo; settings: horse, concentration of C21-C21-desisobutyrylciclesonide in plasma
[2] = tested on: RAO horses; assay: Budesonide study: moldy hay challenge, lung function variables and clinical score; format: in vivo
Text: Nozzle A and a […]® inhaler device not available commercially is used in the study.

[3] = tested on: RAO horses; assay: Segmented neutrophil and lymphocyte counts in the 1st and 2nd ciclesonide studies; format: in vivo; settings: for lymphocytes count / segmented neutrophil count: after administration of dexamethasone 0.066 mg/kg per os; for Lymphocytes / Segmented neutrophils: dexamethasone 0.066 mg/kg per os once daily 14 days, mean, n=8
Procedure: (§1) The commercially available […]® is used in the study.
The segmented neutrophil counts and the lymphocyte counts are determined in the studies above: ciclesonide treatment versus dexamethasone treatment.
Concentration of segmented neutrophils and lymphocytes on day (D): D0, D14 and D21 in the treatment groups of dexamethasone and different doses of ciclesonide (n=8) (mean (SEM)

[4] = taken orally; cited from earlier work
[5] = tested on: RAO horses; assay: 1st ciclesonide study: moldy hay challenge, lung function variables and breathing effort score; format: in vivo; settings: dexamethasone 0.066 mg/kg per os once daily; after 14 days; p<0.0001
[6] = tested on: RAO horses; assay: 2nd ciclesonide study: moldy hay challenge, serum cortisol; format: in vivo; settings: dexamethasone 0.066 mg/kg per os once daily; days 3, 5, 7, 10, 14 and 17; p<0.0001
Text: as §1

[7] = tested on: RAO horses; assay: 1st ciclesonide study: moldy hay challenge, serum cortisol; format: in vivo; settings: dexamethasone 0.066 mg/kg per os once daily; days 3, 5, 7, 10, 14 and 17; p<0.0001
[8] = tested on: RAO horses; assay: 2nd ciclesonide study: moldy hay challenge, lung function variables and weighted clinical score; format: in vivo; settings: dexamethasone 0.066 mg/kg per os once daily; after 14 days
Text: as §1

Compound: C[C@]12C=CC(=O)C=C1CC[C@@H]1[C@@H]2[C@@H](O)C[C@@]2(C)[C@H]1C[C@H]1O[C@@H](C3CCCCC3)O[C@]12C(=O)CO [C21-C21-desisobutyrylciclesonide]
concentration at 4 h [1]: < 0.25 nM

Compound: CCCC1O[C@@H]2C[C@H]3[C@@H]4CCC5=CC(=O)C=C[C@]5(C)[C@H]4[C@@H](O)C[C@]3(C)[C@]2(C(=O)CO)O1 (stereo partly drawn) [budesonide]
clinical score (breathing effort score) compared to pretreatment values ([2]; all three budesonide doses (450/900/1800 μg/horse twice daily), after 7 and 14 days, p=0.002 to p<0.0001): significantly reduced | all lung function variables (transpulmonary pressure, lung resistance, lung elastance) compared to pretreatment values ([2]; budesonide 1800 μg/horse ex RESPIMAT twice daily per inhalation, after 14 days, p≤0.0001): significantly reduced | lung function variables, difference to dexamethasone group ([2]; budesonide 1800 μg/horse ex RESPIMAT twice daily, after 7 or 14 days): no significant difference | clinical score, difference to dexamethasone group ([2]; budesonide 900 and 1800 μg/horse ex RESPIMAT twice daily, after 7 and 14 days): no significant difference

lymphocytes count ([3]; 1st ciclesonide study): decreased | segmented neutrophil count ([3]; 1st ciclesonide study): increased | lymphocytes count ([3]; 2nd ciclesonide study): decreased | segmented neutrophil count ([3]; 2nd ciclesonide study): increased | neutrophilia and lymphopenia ([3]; after treatment with dexamethasone (1st and 2nd ciclesonide study)): Neutrophilia and lymphopenia is observed | Lymphocytes ([3]; 1st ciclesonide study, D 0): 2.1e+09 L⁻¹ | Segmented neutrophils ([3]; 1st ciclesonide study, D 0): 4.77e+09 L⁻¹ | Lymphocytes ([3]; 1st ciclesonide study, D 14): 1.71e+09 L⁻¹ | Segmented neutrophils ([3]; 1st ciclesonide study, D 14): 6.16e+09 L⁻¹ | Lymphocytes ([3]; 1st ciclesonide study, D 21): 1.76e+09 L⁻¹ | Segmented neutrophils ([3]; 1st ciclesonide study, D 21): 4.27e+09 L⁻¹ | Lymphocytes ([3]; 2nd ciclesonide study, D 0): 2.14e+09 L⁻¹ | Segmented neutrophils ([3]; 2nd ciclesonide study, D 0): 4.82e+09 L⁻¹ | Lymphocytes ([3]; 2nd ciclesonide study, D 14): 1.73e+09 L⁻¹ | Segmented neutrophils ([3]; 2nd ciclesonide study, D 14): 6.23e+09 L⁻¹ | Lymphocytes ([3]; 2nd ciclesonide study, D 21): 1.73e+09 L⁻¹ | Segmented neutrophils ([3]; 2nd ciclesonide study, D 21): 4.82e+09 L⁻¹ | serum cortisol levels [6]: significantly reduced | serum cortisol levels in comparison to any of the ciclesonide treatment groups [6]: significantly reduced | serum cortisol levels compared to pretreatment values [7]: significantly reduced | serum cortisol levels in comparison to any of the ciclesonide treatment groups [7]: significantly reduced
Compound: C[C@@H]1C[C@H]2[C@@H]3CCC4=CC(=O)C=C[C@]4(C)[C@@]3(F)[C@@H](O)C[C@]2(C)[C@@]1(O)C(=O)CO [dexamethasone]
potency relative to prednisone [4]: 7 times | potency relative to the naturally occurring hormone cortisol [4]: 27 times | all lung function variables (ΔPL, RL, EL) compared to pretreatment values [5]: significantly reduced | clinical score (breathing effort score) compared to pretreatment values ([2]; dexamethasone 0.066 mg/kg per os once daily, after 7 and 14 days): significantly reduced | all lung function variables compared to pretreatment values ([2]; dexamethasone 0.066 mg/kg per os once daily, after 14 days, p≤0.0001): significantly reduced | all lung function variables (ΔPL, RL, EL) compared to pretreatment values [8]: significantly reduced | weighted clinical score compared to pretreatment values [8]: significantly reduced

Reference: patent US10258634B2, “Ciclesonide for the treatment of airway disease in horses” (Boehringer Ingelheim Vetmedica GmbH, priority 2012, dated 2019)
